In US9221835B2, “Spirocyclic derivatives as antiparasitic agents” (Zoetis Services LLC, priority 2012, dated 2015):

How the values were obtained:
Type in all cases: in vivo
[1] = test system: Soft Tick (Ornithidorus turicata); assay: Soft Tick (Ornithidorus turicata) Blood Feed Assay; conditions: nymph stage ticks fed on treated citrated bovine blood; paralysis and/or death observed at approximately 24, 48 and 72 hours
Experimental: Soft Tick (Ornithidorus turicata) Blood Feed Assay
Compounds of the present invention were dissolved in dimethylsulfoxide (DMSO) and aliquots added to citrated bovine blood in a membrane covered Petri dish. The Petri dish is placed on a warming tray. Approximately 5 nymph stage ticks are placed onto the membrane, covered, and left to feed. Fed ticks are removed and placed into a Petri dish with sand. […] Endpoint data was recorded as a 100% lethal dose (LD^100) in μg/mL.

[2] = test system: Flea (Ctenocephalides felis); assay: Flea (Ctenocephalides felis) Membrane Feed Assay-Adult; conditions: adult fleas fed on treated citrated bovine blood for 24 hours, lowest dose to cause mortality ≧50%, half-log intervals, read-out: Minimum Effective Concentration (MEC)
Experimental: Flea (Ctenocephalides felis) Membrane Feed Assay-Adult
Compounds were dissolved in DMSO and aliquots were added to citrated bovine blood in membrane covered wells warmed to 37° C. Adult fleas were newly emerged (3-7 days) and unfed. Feeding wells containing approximately 10 adult fleas were placed onto the treated blood wells, and the fleas were allowed to feed on the treated blood for 24 hours. […] Each compound was tested at half-log intervals, and endpoint data was recorded as Minimum Effective Concentration in μM. MEC is a subjective visual assessment of organism viability, and is the lowest dose to cause mortality ≧50%.

[3] = test system: Mosquito (Aedes aeqypti) larvae; assay: Mosquito (Aedes aeqypti) Larval Assay; conditions: first instar larvae, 25° C., 24 hours, lowest dose to inhibit motility ≧50% of untreated controls, half-log intervals, read-out: Minimum Effective Concentration (MEC)
Experimental: Mosquito (Aedes aeqypti) Larval Assay
Compounds were dissolved in DMSO and aliquots were spotted to empty wells. First instar mosquito larvae and maintenance media were added to the wells to obtain between 8 and 15 larvae per well in the appropriate final assay volume. Larvae were incubated in the treated media at 25° C. for 24 hours. Mosquito larvae motility was measured at 24 hours. Each compound was tested at half-log intervals, and endpoint results were recorded as Minimum Effective Concentration (MEC) in μM. MEC is an objective assessment of organism motility, and is the lowest dose to inhibit motility ≧50% of untreated controls.

| SMILES | 100% lethal dose (LD100) [1] [µg/mL] | minimal effective concentration [2] [µM] | minimal effective concentration [3] [µM] |
| --- | --- | --- | --- |
| CS(=O)(=O)CC(=O)N1CC2(C1)OCc1cc(C3=NCC(c4cc(Cl)c(Cl)c(Cl)c4)(C(F)(F)F)C3)ccc12 (stereo not drawn) [Example 1, 2-(methylsulfonyl)-1-(5′-(3-(3,4,5-trichlorophenyl)-3-(trifluoromethyl)-3,4-dihydro-2H-pyrrol-5-yl)-3′H-spiro[azetidine-3,1′-isobenzofuran]-1-yl)ethanone] | 0.03 | 0.3 | 0.1 |
| CC(C)C(=O)N1CC2(C1)OCc1cc(C3=NCC(c4cc(Cl)cc(Cl)c4)(C(F)(F)F)C3)ccc12 (stereo not drawn) [Example 6, 5′-(3-(3,5-dichlorophenyl)-3-(trifluoromethyl)-3,4-dihydro-2H-pyrrol-5-yl]-1-isobutyryl-3′H-spiro[azetidine-3,1′-[2]benzofuran]] | 0.03 | 1 | 0.1 |
| CS(=O)(=O)CC(=O)N1CC2(C1)OCc1cc(C3=NNC(c4cc(Cl)c(F)c(Cl)c4)(C(F)(F)F)C3)ccc12 (stereo not drawn) [Example 13, 1-(5′-(5-(3,5-dichloro-4-fluorophenyl)-5-(trifluoromethyl)-4,5-dihydro-1H-pyrazol-3-yl)-3′H-spiro[azetidine-3,1′-isobenzofuran]-1-yl)-2-(methylsulfonyl)ethanone] | 0.03 | ≥ 3 | 0.1 |
| CS(=O)(=O)CC(=O)N1CC2(C1)OCc1cc(N3CCC(c4cc(Cl)c(F)c(Cl)c4)(C(F)(F)F)C3)ccc12 (stereo not drawn) [Example 22, 1-(5-(3-(3,5-dichloro-4-fluorophenyl)-3-(trifluoromethyl)pyrrolidin-1-yl)-3′H-spiro[azetidine-3,1′-isobenzofuran]-1-yl)-2-(methylsulfonyl)ethanone] | 0.03 | ≥ 3 | > 3 |
| CS(=O)(=O)CC(=O)N1CC2(C1)OCc1cc(N3CCC(c4cc(Cl)c(Cl)c(Cl)c4)(C(F)(F)F)C3)ccc12 (stereo not drawn) [Example 26, 5′-[3-(3,4,5-trichloro)-3-(trifluoromethyl)pyrrolidin-1-yl]-1-[(methylsulfonyl)acetyl]-3′H-spiro[azetidine-3,1′-[2]benzofuran]] | 0.1 | ≥ 3 | > 3 |
| CC(C)C(=O)N1CC2(C1)OCc1cc(C3=NOC(c4cc(Cl)c(F)c(Cl)c4)(C(F)(F)F)O3)ccc12 (stereo not drawn) [Example 28, 1-(5′-(5-(3,5-dichloro-4-fluorophenyl)-5-(trifluoromethyl)-1,4,2-dioxazol-3-yl)-3′H-spiro[azetidine-3,1′-isobenzofuran]-1-yl)-2-methyl propan-1-one] | 0.1 | ≥ 3 | 0.3 |
| CC(C)C(=O)N1CC2(C1)OCc1cc(C3=NOC(c4cc(Cl)c(Cl)c(Cl)c4)(C(F)(F)F)O3)ccc12 (stereo not drawn) [Example 31] | 0.3 | ≥ 3 | 0.3 |
